Data from patent US5710150A, “Benzazepine derivative, pharmaceutical composition thereof, and intermediate thereof” (Yamanouchi Pharmaceutical Co., Ltd., priority 1993, dated 1998).
Where a name gives a salt, the structure may show the parent alone. Read-outs that look alike come from different tables or passages of the source.

Tests used:
[1] = molecular target: T1, arginine vasopressin V1 receptor (Rattus norvegicus, UniProt P30560); assay: V1 receptor binding assay ([3H]-Arg-vasopressin, rat liver membrane); details: for antagonism on V1 receptor (in words): compared with OPC-31260 and OPC-21268; for V1 selectivity (in words): V1 versus V2 receptor binding; for V1 receptor antagonism compared with OPC-21268 (in words): versus OPC-21268
T1 construct: A rat liver membrane sample was prepared; from tissue; host or cells: rat liver membranes
Method: (1) V1 receptor binding assay
A rat liver membrane sample was prepared in accordance with the method of Nakamura et al. (J. Biol. Chem., 258, 9283 (1983)), and [^3 H]-Arg-vasopressin (2 nM, specific activity=75.8 Ci/mmol), 70 μg of the membrane sample and each drug to be tested (10^-8 to 10^-4 M) were incubated at 30° C. for 30 minutes in 250 μl of 100 mM Tris-HCl buffer (pH=8.0) containing 5 mM of magnesium chloride, 1 mM of ethylenediaminetetraacetic acid (EDTA) and 0.1% of bovine serum albumin (BSA). Thereafter, the incubation solution was sucked off using a cell harvester and free ligand and excess buffer were removed by passing the reaction mixture through a glass filter (GF/B), thereby trapping receptor-bound labeled ligand on the glass filter. The glass filter was taken out, thoroughly dried and then mixed with a liquid scintillation cocktail, and the amount of the membrane-bound [^3 H]-vasopressin was measured using a liquid scintillation counter to calculate the inhibition ratio by the following formula. [formula] C1 : amount of [^3 H]-vasopressin bound to the membrane in the coexistence of known amount of each drug to be tested and [^3 H]-vasopressin
C0 : amount of [^3 H]-vasopressin bound to the membrane when the drug to be tested was not added
B1 : amount of [^3 H]-vasopressin bound to the membrane in the presence of excess vasopressin (10^-6 M)
[formula] [L]: concentration of radioactive ligand KD: dissociation constant calculated from Scatchard plot
Negative logarithm of the thus calculated Ki value was used as pKi value.

[2] = molecular target: arginine vasopressin V2 receptor (Oryctolagus cuniculus, UniProt G1TA00); assay: V2 receptor binding assay ([3H]-Arg-vasopressin, rabbit renal medulla membrane); details: for antagonism on V2 receptor (in words): compared with OPC-31260 and OPC-21268; for Binding activity on arginine vasopressin V2 receptor (pKi): rabbit renal medulla membrane, [3H]-Arg-vasopressin 2 nM
[3] = rat liver membrane, [3H]-Arg-vasopressin 2 nM, 30° C., 30 minutes, pH 8.0, read-out: Binding activity on arginine vasopressin V1 receptor (pKi) (converted)

Chain of arginine vasopressin V2 receptor (G1TA00 78-446): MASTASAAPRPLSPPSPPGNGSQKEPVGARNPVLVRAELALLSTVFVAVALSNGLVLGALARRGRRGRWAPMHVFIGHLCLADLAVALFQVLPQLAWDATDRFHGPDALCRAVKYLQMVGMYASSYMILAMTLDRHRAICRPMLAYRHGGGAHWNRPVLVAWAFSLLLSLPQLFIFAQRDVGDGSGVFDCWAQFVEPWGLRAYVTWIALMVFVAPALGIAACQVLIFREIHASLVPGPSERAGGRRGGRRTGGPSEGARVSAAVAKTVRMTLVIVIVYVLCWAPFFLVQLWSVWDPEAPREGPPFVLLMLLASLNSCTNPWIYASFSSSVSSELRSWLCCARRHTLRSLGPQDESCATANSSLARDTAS
T1 sequence (P30560 whole entry): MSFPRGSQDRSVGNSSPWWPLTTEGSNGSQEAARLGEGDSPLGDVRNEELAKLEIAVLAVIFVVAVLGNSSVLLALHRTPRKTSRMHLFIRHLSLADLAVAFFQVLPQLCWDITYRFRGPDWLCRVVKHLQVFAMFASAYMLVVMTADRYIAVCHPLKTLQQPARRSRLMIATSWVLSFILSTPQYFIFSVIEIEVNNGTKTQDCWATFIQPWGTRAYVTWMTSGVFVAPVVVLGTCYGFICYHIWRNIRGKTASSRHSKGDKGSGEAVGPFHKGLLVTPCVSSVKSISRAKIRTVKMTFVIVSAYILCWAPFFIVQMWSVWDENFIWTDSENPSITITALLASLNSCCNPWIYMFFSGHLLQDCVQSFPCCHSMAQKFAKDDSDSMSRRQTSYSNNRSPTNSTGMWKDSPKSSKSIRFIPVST

Row | SMILES | antagonism on V1 receptor (in words) [1] | Ki [1, 3] [nM] | antagonism on V2 receptor (in words) [2] | Binding activity on arginine vasopressin V2 receptor (pKi) [2] | Ki [1] [nM] | V1 selectivity (in words) [1] | V1 receptor antagonism compared with OPC-21268 (in words) [1]
1 | Cl.O=C(/C=C1/c2ccccc2N(C(=O)c2ccc(NC(=O)c3ccccc3-c3ccccc3)cc2)CCC1(F)F)NC1CN2CCC1CC2 (racemic) [Example 85, (±)-(Z)-4'-[[4,4-difluoro-5-[[N-(3-quinuclidinyl)carbamoyl]methylene]-2,3,4,5-tetrahydro-1H-1-benzazepin-1-yl]carbonyl]-2-phenylbenzanilide hydrochloride] | excellent antagonisms on both V1 and V2 receptors | 0.0955 | excellent antagonisms on both V1 and V2 receptors | 9.97 | – | – | –
2 | Cc1ccc(-c2ccccc2C(=O)Nc2ccc(C(=O)N3CCC(F)(F)/C(=C\C#N)c4ccccc43)cc2)cc1 [Compound 22 (a), 4'-[(5-cyanomethylene-4,4-difluoro-2,3,4,5-tetrahydro-1H-1-benzazepin-1-yl)carbonyl]-2-(4methylphenyl)benzanilide] | – | – | – | 8.36 | 9.55 | – | –
3 | Cl.O=C(Nc1ccc(C(=O)N2CCC(F)(F)/C(=C\C(=O)N3CCNCC3)c3ccccc32)cc1)c1ccccc1-c1ccccc1 [Example 12, (Z)-4'-[[4,4-difluoro-5-[(1piperazinylcarbonyl)methylene]-2,3,4,5-tetrahydro-1H-1-benzazepin-1-yl]carbonyl]-2-phenylbenzanilide hydrochloride] | excellent antagonisms on both V1 and V2 receptors | 0.219 | excellent antagonisms on both V1 and V2 receptors | 9.71 | – | – | –
4 | O=C(/C=C1/c2ccccc2N(C(=O)c2ccc(NC(=O)c3ccccc3-c3ccccc3)cc2)CCC1(F)F)NCc1ccccn1 [Example 14, (Z)-4'-[[4,4-difluoro-5-[N-(2-pyridylmethyl)carbonylmethylene]-2,3,4,5-tetrahydro-1H-1-benzazepin-1-yl]carbonyl]-2-phenylbenzanilide hydrochloride] | – | 1.23 | – | 9.39 | – | – | –
5 | CN(C)CCN(C)C(=O)/C=C1/c2ccccc2N(C(=O)c2ccc(NC(=O)c3ccccc3-c3ccccc3)cc2)CCC1(F)F [Example 15, (Z)-4'-[4,4-difluoro-5-[[N-(2-dimethylaminoethyl)-N-methylcarbonylmethylene]-2,3,4,5-tetrahydro-1H-1-benzazepin-1-yl]carbonyl]-2-phenylbenzanilide hydrochloride] | excellent antagonisms on both V1 and V2 receptors | 0.162 | excellent antagonisms on both V1 and V2 receptors | 9.13 | – | – | –
6 | Cc1cccc(-c2ccccc2C(=O)Nc2ccc(C(=O)N3CCC(F)(F)/C(=C\C(=O)N4CCN(C)CC4)c4ccccc43)cc2)c1.Cl [Example 19, (Z)-4'-[[4,4-difluoro-5-(4-methyl-1-piperazinyl)carbonylmethylene-2,3,4,5-tetrahydro-1H-1-benzazepin-1-yl]carbonyl]-2-(3-methylphenyl)benzanilide hydrochloride] | – | 2.63 | – | 8.84 | – | – | –
7 | O=C(Nc1ccc(C(=O)N2CCC(F)(F)/C(=C\C(=O)N3CCCNCC3)c3ccccc32)cc1)c1ccccc1-c1ccccc1 [Example 28, (Z)-4'-[[[5-[(hexahydro-1,4-diazepin-1-yl)carbonyl]methylene]-4,4-difluoro-2,3,4,5-tetrahydro-1H-1-benzazepin-1-yl]carbonyl]-2-phenylbenzanilide hydrochloride] | excellent antagonisms on both V1 and V2 receptors | 0.0832 | excellent antagonisms on both V1 and V2 receptors | 9.37 | – | – | –
8 | CCc1nccn1-c1ccccc1C(=O)Nc1ccc(C(=O)N2CCC(F)(F)/C(=C\C(=O)OC)c3ccccc32)cc1 [Example 42, methyl (Z)-[1-[4-[2-(2-ethyl-1H-imidazol-1yl)benzoyl]amino]benzoyl-4,4-difluoro-2,3,4,5-tetrahydro-1H-1-benzazepin-5-ylidene]acetate] | – | 1.15 | – | 6.33 | – | excellent in V1 selectivity | markedly stronger V1 receptor antagonism than that of OPC-21268
9 | CN1CCN(C/C=C2/c3ccccc3N(C(=O)c3ccc(NC(=O)c4ccccc4-c4ccccc4)cc3)CCC2(F)F)CC1.Cl.Cl [Example 80, (Z)-4'-[[4,4-difluoro-5-[2-(4-methyl-1-piperazinyl)ethylidene]-2,3,4,5-tetrahydro-1H-1-benzazepin-1-yl]carbonyl]-2-phenylbenzanilide dihydrochloride] | – | 0.363 | – | 8.50 | – | – | –
10 | Cl.O=C(Nc1ccc(C(=O)N2CCC(F)(F)/C(=C\CN3CCCC3)c3ccccc32)cc1)c1ccccc1-c1ccccc1 [Example 81, (Z)-4'-[[4,4-difluoro-5-[2-(1-pyrrolidinyl)ethylidene]-2,3,4,5-tetrahydro-1H-1-benzazepin-1-yl]carbonyl]-2-phenylbenzanilide hydrochloride] | – | 0.724 | – | 8.64 | – | – | –
11 | CN(C)CC/C=C1\c2ccccc2N(C(=O)c2ccc(NC(=O)c3ccccc3-c3ccccc3)cc2)CCC1(F)F.Cl [Example 82, (E)-4'-[[4,4-difluoro-5-(3-dimethylaminopropylidene)-2,3,4,5-tetrahydro-1H-1-benzazepin-1-yl]carbonyl]-2-phenylbenzanilide hydrochloride] | – | 2.63 | – | 8.13 | – | – | –
12 | O=C(Nc1ccc(C(=O)N2CCC(F)(F)/C(=C\C(=O)N3CCC(N4CCCCC4)CC3)c3ccccc32)cc1)c1ccccc1-c1ccccc1 [Example 83, (Z)-4'-[[4,4-difluoro-5-[[(4-piperidinopiperidino)carbonyl]piperidyl)carbamoyl]methylene]-2,3,4,5-tetrahydro-1H-1-benzazepin-1-yl]carbonyl]-2-phenylbenzanilide hydrochloride] | – | 0.234 | – | 8.47 | – | – | –
13 | CN1CCC(N(C)C(=O)/C=C2/c3ccccc3N(C(=O)c3ccc(NC(=O)c4ccccc4-c4ccccc4)cc3)CCC2(F)F)CC1 [Example 84, (Z)-4'-[[4,4-difluoro-5-[[N-methyl-N-(1-methyl-4-piperidyl)carbamoyl]methylene]-2,3,4,5-tetrahydro-1H-1-benzazepin-1-yl]carbonyl]-2-phenylbenzanilidehydrochloride] | – | 0.102 | – | – | – | – | –
14 | CN(C)C1CCN(C(=O)/C=C2/c3ccccc3N(C(=O)c3ccc(NC(=O)c4cccc(Cl)c4)cc3)CCC2(F)F)CC1.Cl [Example 96, (Z)-3-chloro-4'-[[4,4-difluoro-5-[[(4-dimethylaminopiperidino)carbonyl]methylene]-2,3,4,5-tetrahydro-1H-1-benzazepin-1-yl]carbonyl]benzanilide hydrochloride] | – | 2 | – | 8.13 | – | – | –
15 | CCc1nccn1-c1ccccc1C(=O)Nc1ccc(C(=O)N2CCC(F)(F)/C(=C\C(N)=O)c3ccccc32)cc1 [Example 103, (Z)-4'-[(5-carbamoylmethylene-4,4-difluoro-2,3,4,5-tetrahydro-1H-1-benzazepin-1-yl]carbonyl]-2-(2-ethyl-1H-imidazol-1-yl)benzanilide] | – | 2 | – | 6.35 | – | excellent in V1 selectivity | markedly stronger V1 receptor antagonism than that of OPC-21268
16 | CCc1nccn1-c1ccccc1C(=O)Nc1ccc(C(=O)N2CCC(F)(F)/C(=C\C(=O)NC)c3ccccc32)cc1 [Example 104, (Z)-2-(2-ethyl-1H-imidazol-1-yl)-4'-[[4,4-difluoro-5-[(N-methylcarbamoyl)methylene]-2,3,4,5-tetrahydro-1H-1-benzazepin-1-yl]carbonyl]benzanilide] | – | 0.977 | – | 6.68 | – | excellent in V1 selectivity | markedly stronger V1 receptor antagonism than that of OPC-21268
17 | CCc1nccn1-c1ccccc1C(=O)Nc1ccc(C(=O)N2CCC(F)(F)/C(=C\C(=O)NC3CC3)c3ccccc32)cc1 [Example 105, (Z)-4'-[[5-[(N-cyclopropylcarbamoyl)methylene]-4,4-difluoro-2,3,4,5-tetrahydro-1H-1-benzazepin-1-yl]carbonyl]-2-(2-ethyl-1H-imidazol-1-yl) benzanilide] | – | 0.339 | – | 6.81 | – | excellent in V1 selectivity | markedly stronger V1 receptor antagonism than that of OPC-21268
18 | Cc1ccccc1CC(=O)Nc1ccc(C(=O)N2CCC(F)(F)/C(=C\C(=O)N3CCC(N(C)C)CC3)c3ccccc32)cc1 [Example 106, hydrochloride] | – | 1.12 | – | 8.24 | – | – | –
